Marks after values point to notes of the source that are not given here.
What was measured:
[1] = tested on: rats having hyperuricemia induced by potassium oxonate; test: Serum creatinine content of rats having hyperuricemia induced by potassium oxonate (picric acid method); assay type: in vivo, rat; conditions: administration for 30 d, extracts 200 mg·kg^−1, allopurinol 50 mg·kg^−1, intragastric, x ± s
From the text: (§1) 180 SD rats (SPF grade, male, 200±20 (g)) were provided by Laboratory Animals Centre, Guangzhou University of Chinese Medicine (License Number: SCXK(Yue)2013-0020). Reagents: allopurinol tablets (Guangdong P.D. Pharmaceutical Co., Ltd., Production batch No. 20130302); potassium oxonate (Shandong Zhongke Taidou Chemical Co., Ltd., Batch No. 120901); sodium carboxymethyl cellulose (Shanghai Celluloid Factory, Product Standard No. GB2760); uric acid assay kit (NanJing Jiancheng Bioengineering Institute, Production batch No. 20130529).
(§2) Animal grouping and modeling: 165 normal healthy SD male rats were obtained and randomly divided into normal control group (15 rats) and model group (150 rats). […] Those rats having a uric acid content of greater than 110 μmol·L^−1 were determined to be successful models. […] On 10th and 20th day after treatment with the above-described peptide samples, 50 min after the last administration, the rats were anaesthetized with 3% pentobarbitol sodium (i.p., 30 mg·kg^−1), and the blood (0.5 ml) was collected from conjunctiva and the serum uric acid content was determined. On 30th day after treatment with antigout peptides, the rats were anaesthetized with 3% pentobarbitol sodium, and 5 ml of blood was collected from coeliac artery and the content of serum creatinine and urea nitrogen were determined at the same time in addition to the serum uric acid content. […]

[2] = tested on: rats having hyperuricemia induced by potassium oxonate; test: Serum uric acid content of rats having hyperuricemia induced by potassium oxonate (tungstic acid method); assay type: in vivo, rat; conditions: allopurinol group 50 mg·kg^−1; p<0.01; day not given
From the text: as §1, §2

Structure (SMILES): Oc1ncnc2[nH]ncc12 [Allopurinol, allopurinol]
- Creatinine (μmol/L) [1]: 52.9 ± 10.8^b μmol/L
- Effect on serum uric acid content versus model group (in words) [2]: very significant effect in the reduction of the serum uric acid
